In US4008219A, “4-Benzazonine derivatives and process for preparation thereof” (Nihon Iyakuhin Kogyo Co., Ltd., priority 1973, dated 1977):

Columns and labels:
mice of the ddN-series [1] = assay: Analgesic test, Heat Stimulus Method (Hot Plate Method); assay type: in vivo, mouse; set-up: reference not given here; conditions: hypodermic injection, comparative value, scale not given
Description: (§1) Results of comparative tests where the medicinal effects of compounds of this invention were compared with those of known compounds such as pentazocine and codeine phosphate by employing mice and guinea pigs as the test animals are shown in the following Tables I and II.
Heat Stimulus Method^2)
(§2) Tested Animal: mice of the ddN-series, .male., 20 ± 1 experimental
(§3) Conditions: temperature of 24 ± 1° C., relative humidity of 65
^2) G. Woolfe and A. D. Mac Donald; Journal of Pharmacology and […]

Acute Toxicity = conditions: in vivo; mouse, intravenous injection
Description: as §2, §3

mice of the ddN-series [2] = assay: Analgesic test, Chemical Stimulus Method (Writhing Method); assay type: in vivo, mouse; set-up: scale not given here; conditions: interabdominal injection, comparative value, scale not given
Description: as §1
Chemical Stimulus Method^1)
(interabdominal injection)
as §2, §3
^1) R. Koster, M. Anderson and E. J. De Beer, Federation Proceedings, […]

mice of the ddN-series [3] = assay: Analgesic test, Pressure Stimulus Method; assay type: in vivo, mouse; conditions: hypodermic injection, comparative value, pentazocine 1.0
Description: as §1
Pressure Stimulus Method^3)
R (hypodermic injection)
as §2, §3
^3) A. F. Green, P. A. Yound and E. I. Godfrey; British Journal of
Pharmacology and Chemotherapy, 6, 572 (1951)

guinea pigs [4] = assay: Antitussive effect, Chemical Stimulus Method (SO2 gas); assay type: in vivo, guinea pig; conditions: for ED50: Cavia porcellus, sc, 0.5 h, read-out: ED50, Chemical Stimulus Method (antitussive); for Effect Ratio to Codeine Phosphate, Chemical Stimulus Method: codeine phosphate = 100
Source text: as §1
(§4) Comparison of Antitusive Effects
2) Takagi et al modification [Journal of Pharmaceutical Society of Japan,
80, 1497 (1960)] of the test method of H. Friebel, C. Reichle and A. V.
Gravenitz [Archiv Fur experimentalle Phathologie und Pharmakologie,
Naunyn-Schmiede-berg's, 224,384 (1955)], in which the test compound was
hypodermically injected into guinea pigs, 30 minutes after the injection
the quinea pigs were put into a desiccator filled with SO2 gas and
kept in the desiccator for 1 minute, then the guinea pigs were put into
another vessel and the degree of coughing was examined.

guinea pigs [5] = assay: Antitussive effect, Mechanical Stimulus Method; assay type: in vivo, guinea pig; conditions: for ED50: Cavia porcellus, swine hairs inserted into the trachea; for Effect Ratio to Codeine Phosphate, Mechanical Stimulus Method: codeine phosphate = 100
Source text: as §1, §4
Mechanical Stimulus Method^1)
1) Takagi et al modification [Journal of the Pharmaceutical Society of
Japan, 80, 1497 (1960)] of the test method of H. Konzett and E. Rothlin
[Experientia, 10, 472 (1954)], in which urethane was hypodermically
injected (15 mg/Kg) into guinea pigs and swine hairs were inserted into
the trachea to impart stimulus.

[6] = guinea pigs, hypodermic injection, SO2 gas, 1 minute, 30 minutes after injection

## CCN1CCC2(C)c3cc(OC)ccc3CC(C1)C2C (stereo not drawn)
Mice of the ddN-series [1]
  Heat Stimulus Method (Hot Plate Method): 2.0
Acute Toxicity
  LD50: 100 mg/kg
Mice of the ddN-series [2]
  Chemical Stimulus Method (Writhing Method): 0.8

## COc1ccc2c(c1)C1(C)CCN(CCc3ccccc3)CC(C1)C2O (stereo not drawn)
Mice of the ddN-series [3]
  Pressure Stimulus Method: 1.8
Mice of the ddN-series [1]
  Heat Stimulus Method (Hot Plate Method): 2.2
Acute Toxicity
  LD50: 45 mg/kg
Mice of the ddN-series [2]
  Chemical Stimulus Method (Writhing Method): 1.6

## C=CCN1CCC2(C)CC(C1)C(O)c1ccc(OC)cc12 (stereo not drawn)
Mice of the ddN-series [1]
  Heat Stimulus Method (Hot Plate Method): 1.6
Acute Toxicity
  LD50: 61 mg/kg
Mice of the ddN-series [2]
  Chemical Stimulus Method (Writhing Method): 1.4

## CCN1CCC2(C)CC(Cc3ccc(OC)cc32)C1 (stereo not drawn) [R=CH3O, R1=CH3, R2=H, CH2R3=CH2CH3, R4=H]
Mice of the ddN-series [1]
  Heat Stimulus Method (Hot Plate Method): 2.0
Acute Toxicity
  LD50: 120 mg/kg
Mice of the ddN-series [2]
  Chemical Stimulus Method (Writhing Method): 0.8

## COc1ccc2c(c1)C1(C)CCN(C)CC(C2)C1 (stereo not drawn) [R=CH3O, R1=CH3, R2=H, CH2R3=CH3, R4=H]
Mice of the ddN-series [1]
  Heat Stimulus Method (Hot Plate Method): 2.0
Acute Toxicity
  LD50: 120 mg/kg
Mice of the ddN-series [2]
  Chemical Stimulus Method (Writhing Method): 0.8

## COc1ccc2c(c1)C1(C)CCN(C)CC(C1)C2O (stereo not drawn) [R=CH3O, R1=CH3, R2=H, CH2R3=CH3, R4=OH, 1,4-dimethyl-10-methoxy-2,3,4,5,6,7-hexahydro-1,6-methano-1H-4-benzazonin-7-ol]
Mice of the ddN-series [3]
  Pressure Stimulus Method: 1.2
Guinea pigs [4]; [6]
  ED50: 6.06 mg/kg
Guinea pigs [4]; guinea pigs, SO2 gas
  Effect Ratio to Codeine Phosphate, Chemical Stimulus Method: 218.8
Mice of the ddN-series [1]
  Heat Stimulus Method (Hot Plate Method): 5.0
Acute Toxicity
  LD50: 72 mg/kg
Mice of the ddN-series [2]
  Chemical Stimulus Method (Writhing Method): 1.5
Guinea pigs [5]
  ED50: 13.7 mg/kg
  Effect Ratio to Codeine Phosphate, Mechanical Stimulus Method: 105.5

## COc1ccc2c(c1)C1(C)CCN(CCc3ccccc3)CC(C2)C1 (stereo not drawn) [R=CH3O, R1=CH3, R2=H, CH2R3=drawing 44, R4=H]
Mice of the ddN-series [1]
  Heat Stimulus Method (Hot Plate Method): 2.0
Acute Toxicity
  LD50: 48 mg/kg
Mice of the ddN-series [2]
  Chemical Stimulus Method (Writhing Method): 1.5

## CC1C2CN(C)CCC1(C)c1ccccc1C2O (stereo not drawn) [R=H, R1=CH3, R2=CH3, CH2R3=CH3, R4=OH]
Mice of the ddN-series [3]
  Pressure Stimulus Method: 1.5
Mice of the ddN-series [1]
  Heat Stimulus Method (Hot Plate Method): 2.0
Acute Toxicity
  LD50: 30 mg/kg
Mice of the ddN-series [2]
  Chemical Stimulus Method (Writhing Method): 1.6

## C=CCN1CCC2(C)CC(C1)C(O)c1ccccc12 (stereo not drawn) [R=H, R1=CH3, R2=H, CH2R3=CH2CHCH2, R4=OH]
Mice of the ddN-series [3]
  Pressure Stimulus Method: 2.0
Mice of the ddN-series [1]
  Heat Stimulus Method (Hot Plate Method): 1.5
Acute Toxicity
  LD50: 55 mg/kg
Mice of the ddN-series [2]
  Chemical Stimulus Method (Writhing Method): 1.8

## CN1CCC2(C)CC(C1)C(O)c1ccccc12 (stereo not drawn) [R=H, R1=CH3, R2=H, CH2R3=CH3, R4=OH, 1,4-dimethyl-2,3,4,5,6,7-hexahydro-1,6-methano-1H-4-benzazonin-7-ol]
Mice of the ddN-series [3]
  Pressure Stimulus Method: 1.2
Guinea pigs [4]; [6]
  ED50: 1.64 mg/kg
Guinea pigs [4]; guinea pigs, SO2 gas
  Effect Ratio to Codeine Phosphate, Chemical Stimulus Method: 800.7
Mice of the ddN-series [1]
  Heat Stimulus Method (Hot Plate Method): 1.4
Acute Toxicity
  LD50: 70 mg/kg
Mice of the ddN-series [2]
  Chemical Stimulus Method (Writhing Method): 0.7
Guinea pigs [5]
  ED50: 4.42 mg/kg
  Effect Ratio to Codeine Phosphate, Mechanical Stimulus Method: 326.9

## CC(C)=CCN1CCC2(C)CC(C1)C(O)c1ccccc12 (stereo not drawn) [R=H, R1=CH3, R2=H, CH2R3=drawing 38, R4=OH]
Mice of the ddN-series [3]
  Pressure Stimulus Method: 1.6
Mice of the ddN-series [1]
  Heat Stimulus Method (Hot Plate Method): 1.5
Acute Toxicity
  LD50: 25 mg/kg
Mice of the ddN-series [2]
  Chemical Stimulus Method (Writhing Method): 1.5

## C=CCN1CCC2CC(Cc3ccccc32)C1 (stereo not drawn) [R=H, R1=H, R2=H, CH2R3=CH2CHCH2, R4=H, 4-allyl-2,3,4,5,6,7-hexahydro-1,6-methano-1H-4-benzazonine]
Mice of the ddN-series [3]
  Pressure Stimulus Method: 1.5
Guinea pigs [4]; [6]
  ED50: 12.7 mg/kg
Guinea pigs [4]; guinea pigs, SO2 gas
  Effect Ratio to Codeine Phosphate, Chemical Stimulus Method: 104.7
Mice of the ddN-series [1]
  Heat Stimulus Method (Hot Plate Method): 5.0
Acute Toxicity
  LD50: 45 mg/kg
Mice of the ddN-series [2]
  Chemical Stimulus Method (Writhing Method): 1.4
Guinea pigs [5]
  ED50: 7.42 mg/kg
  Effect Ratio to Codeine Phosphate, Mechanical Stimulus Method: 195.0

## CN1CCC2CC(Cc3ccccc32)C1 (stereo not drawn) [R=H, R1=H, R2=H, CH2R3=CH3, R4=H, 4-methyl-2,3,4,5,6,7-hexahydro-1,6-methano-1H-4-benzazonine]
Mice of the ddN-series [1]
  Heat Stimulus Method (Hot Plate Method): 0.6
Acute Toxicity
  LD50: 20 mg/kg
Mice of the ddN-series [2]
  Chemical Stimulus Method (Writhing Method): 2.5

## CN1CCC2CC(C1)C(O)c1ccccc12 (stereo not drawn) [R=H, R1=H, R2=H, CH2R3=CH3, R4=OH, 4-methyl-2,3,4,5,6,7-hexahydro-1,6-methano-1H-4-benzazonin-7-ol]
Guinea pigs [4]; [6]
  ED50: 6.58 mg/kg
Guinea pigs [4]; guinea pigs, SO2 gas
  Effect Ratio to Codeine Phosphate, Chemical Stimulus Method: 201.4
Guinea pigs [5]
  ED50: 9.21 mg/kg
  Effect Ratio to Codeine Phosphate, Mechanical Stimulus Method: 157.1

## CC(C)=CCN1CCC2CC(C1)C(O)c1ccccc12 (stereo not drawn) [R=H, R1=H, R2=H, CH2R3=drawing 36, R4=OH]
Mice of the ddN-series [3]
  Pressure Stimulus Method: 1.4
Mice of the ddN-series [1]
  Heat Stimulus Method (Hot Plate Method): 1.2
Acute Toxicity
  LD50: 60 mg/kg
Mice of the ddN-series [2]
  Chemical Stimulus Method (Writhing Method): 1.2

## OC1c2ccccc2C2CCN(CCc3ccccc3)CC1C2 (stereo not drawn) [R=H, R1=H, R2=H, CH2R3=drawing 37, R4=OH]
Mice of the ddN-series [3]
  Pressure Stimulus Method: 2.0
Mice of the ddN-series [1]
  Heat Stimulus Method (Hot Plate Method): 4.5
Acute Toxicity
  LD50: 45 mg/kg
Mice of the ddN-series [2]
  Chemical Stimulus Method (Writhing Method): 1.8

## CC(C)=CCN1CCC2CC(Cc3ccccc32)C1 (stereo not drawn) [R=H, R1=H, R2=H, CH2R3=drawing 40, R4=H]
Mice of the ddN-series [3]
  Pressure Stimulus Method: 1.4
Mice of the ddN-series [1]
  Heat Stimulus Method (Hot Plate Method): 1.5
Acute Toxicity
  LD50: 65 mg/kg
Mice of the ddN-series [2]
  Chemical Stimulus Method (Writhing Method): 1.0

## c1ccc(CCN2CCC3CC(Cc4ccccc43)C2)cc1 (stereo not drawn) [R=H, R1=H, R2=H, CH2R3=drawing 41, R4=H]
Mice of the ddN-series [3]
  Pressure Stimulus Method: 2.0
Mice of the ddN-series [1]
  Heat Stimulus Method (Hot Plate Method): 5.0
Acute Toxicity
  LD50: 35 mg/kg
Mice of the ddN-series [2]
  Chemical Stimulus Method (Writhing Method): 0.8

## c1ccc(CN2CCC3CC(Cc4ccccc43)C2)cc1 (stereo not drawn) [R=H, R1=H, R2=H, CH2R3=drawing 42, R4=H]
Mice of the ddN-series [1]
  Heat Stimulus Method (Hot Plate Method): 3.0
Acute Toxicity
  LD50: 120 mg/kg
Mice of the ddN-series [2]
  Chemical Stimulus Method (Writhing Method): 1.0

## CCN1CCC2(C)CC(Cc3ccc(O)cc32)C1 (stereo not drawn) [R=HO, R1=CH3, R2=H, CH2R3=CH2CH3, R4=H]
Mice of the ddN-series [1]
  Heat Stimulus Method (Hot Plate Method): 2.0
Acute Toxicity
  LD50: 80 mg/kg
Mice of the ddN-series [2]
  Chemical Stimulus Method (Writhing Method): 1.5

## CN1CCC2(C)CC(Cc3ccc(O)cc32)C1 (stereo not drawn) [R=HO, R1=CH3, R2=H, CH2R3=CH3, R4=H, 1,4-dimethyl-10-hydroxy-2,3,4,5,6,7-hexahydro-1,6-methano-1H-4-benzazonine]
Mice of the ddN-series [1]
  Heat Stimulus Method (Hot Plate Method): 2.0
Acute Toxicity
  LD50: 75 mg/kg
Mice of the ddN-series [2]
  Chemical Stimulus Method (Writhing Method): 1.5

## CC(C)=CCN1CCC2(C)CC(Cc3ccc(O)cc32)C1 (stereo not drawn) [R=HO, R1=CH3, R2=H, CH2R3=drawing 43, R4=H]
Mice of the ddN-series [1]
  Heat Stimulus Method (Hot Plate Method): 1.5
Acute Toxicity
  LD50: 40 mg/kg
Mice of the ddN-series [2]
  Chemical Stimulus Method (Writhing Method): 1.0

## CC(C)CCN1CCC2(C)CC(Cc3ccc(O)cc32)C1 (stereo not drawn) [R=HO, R1=CH3, R2=H, CH2R3=drawing 45, R4=H]
Mice of the ddN-series [1]
  Heat Stimulus Method (Hot Plate Method): 1.5
Acute Toxicity
  LD50: 40 mg/kg
Mice of the ddN-series [2]
  Chemical Stimulus Method (Writhing Method): 1.0

## COc1ccc2c3c1O[C@H]1[C@@H](O)C=C[C@H]4[C@@H](C2)N(C)CC[C@@]341 [codeine phosphate, reference compound]
Guinea pigs [4]; [6]
  ED50: 13.3 mg/kg
Guinea pigs [5]
  ED50: 14.5 mg/kg

## COc1ccc2c3c1O[C@H]1[C@@H](O)CC[C@H]4[C@@H](C2)N(C)CC[C@@]341 [dihydrocodeine phosphate, reference compound]
Guinea pigs [4]
  ED50: 2.65 mg/kg
Guinea pigs [5]
  ED50: 4.65 mg/kg

## CC(C)=CCN1CCC2(C)c3cc(O)ccc3CC1C2C (stereo not drawn) [pentazocine, 1,2,3,4,5,6-hexahydro-3-(3-methyl-2-butenyl)-6, 11-dimethyl-8-hydroxy-2,6-methano-3-benzazonine, reference compound]
Mice of the ddN-series [3]
  Pressure Stimulus Method: 1.0
Acute Toxicity
  LD50: 25 mg/kg
